Here are results for 4 compounds from article PMC8228075, “In Vitro and In Silico Characterization of G-Protein Coupled Receptor (GPCR) Targets of Phlorofucofuroeckol-A and Dieckol” (Marine Drugs, 2021).

Common to all, as to assay type: cell-based
One assay concerns the target h5-HT1BR (Homo sapiens, UniProt P28222). The experiment in a line: h5-HT1BR functional antagonist assay (cAMP, HTRF, Hela cells). The method, then:
(§1) The in-house assay protocol and experimental conditions are reported in our previous reports. The functional effect of dieckol and PFF-A was characterized based on their modulation effect on cytosolic Ca^2+ ion mobilization using a fluorimetric detection method or by measuring their effect on cAMP modulation using homogeneous time-resolved fluorescence (HTRF) detection.
(§2) Functional activity of phlorotannins over hA2AR, hα2CAR, hCB1R, GLP-1R, and h5-HT1BR was determined by measuring their effects on cAMP production by the HTRF detection method using transected cells expressing human cloned receptors.
Concisely, a plasmid containing the GPCR gene of interest (5-HT1B) was transfected into Hela cells. The resulting stable transfectants were suspended in HBSS buffer (Invitrogen, Carlsbad, CA, USA) containing 20 mM HEPES (pH 7.4), […], 1 mg/mL glucose, and 500 μM IBMX and distributed in microplates at a density of 2 × 10^4 cells/well. […] Then, the cells were lysed and a fluorescence acceptor (D2-labeled cAMP) and fluorescence donor (anti-cAMP antibody with europium cryptate) were added following 60 min incubation at RT.

Assay [1] addresses T1, Cannabinoid receptor 1 (CB1R) (Homo sapiens, UniProt P21554).
T1 construct: host or cells: CHO cells
Briefly: hCB1R functional antagonist assay (cAMP, HTRF, CHO cells). The note with it: reference antagonist; read-out: Reference Drugs, IC50. On the procedure: as §1, §2
The transfected CHO cells were suspended in HBSS buffer (Invitrogen) complemented with 20 mM HEPES (pH 7.4). […] After 30 min of incubation at 37 °C, the cells were lysed and the fluorescence acceptor (D2-labeled cAMP) and fluorescence donor (anti-cAMP antibody labeled with europium cryptate) were added.

Assay [2] deals with T2, Free fatty acid receptor 1 (FFA1R) (GPR40) (Homo sapiens, UniProt O14842).
T2 construct: host or cells: HEK-293 cells
Briefly: FFA1R/GPR40 functional agonist assay (Ca2+ mobilization, HEK-293 cells). Conditions: reference agonist; read-out: Reference Drugs, EC50. On the procedure:
The in-house assay protocol and experimental conditions are reported in our previous reports. […] Then, the mixture of fluorescent probe (Fluo4 Direct, Invitrogen) and probenecid in HBSS buffer (Invitrogen) complemented with 20 mM Hepes (Invitrogen) (pH 7.4) was added into each well and incubated for 60 min at 37 °C, followed by 15 min incubation at 22 °C. Thereafter, the assay plates were positioned in a CellLux microplate reader (PerkinElmer, Waltham, MA, USA) which was used for the addition of the following: For agonist assay-test compound, reference agonist, or HBSS buffer (basal control). Linoleic acid at 100 μM was added in separate assay wells for stimulated control measurement.
In general terms: Calcium flux is commonly read through the fluorescence of an indicator in the cells.

Assay [3] addresses T3, Alpha-2A adrenergic receptor (hα2AAR) (Homo sapiens, UniProt P08913).
T3 construct: host or cells: rat basophil leukemia cells
T3 sequence (P08913 1-465): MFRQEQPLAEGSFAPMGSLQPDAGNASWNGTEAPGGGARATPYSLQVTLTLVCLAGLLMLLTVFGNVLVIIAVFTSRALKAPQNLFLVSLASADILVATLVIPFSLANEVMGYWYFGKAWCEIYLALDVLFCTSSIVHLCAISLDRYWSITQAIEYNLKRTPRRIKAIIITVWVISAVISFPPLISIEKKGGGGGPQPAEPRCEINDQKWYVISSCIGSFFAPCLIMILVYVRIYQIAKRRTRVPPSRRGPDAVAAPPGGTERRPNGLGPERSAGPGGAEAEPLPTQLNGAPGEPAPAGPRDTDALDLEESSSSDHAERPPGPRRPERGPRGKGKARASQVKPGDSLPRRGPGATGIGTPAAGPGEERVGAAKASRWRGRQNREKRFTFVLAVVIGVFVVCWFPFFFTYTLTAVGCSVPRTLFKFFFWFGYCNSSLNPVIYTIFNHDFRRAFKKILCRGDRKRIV
Briefly: hα2AAR functional antagonist assay (Ca2+ mobilization, rat basophil leukemia cells). Conditions: reference antagonist; read-out: Reference Drugs, IC50.
Excerpt: as §1
The rat basophil leukemia cells were distributed in microplates at a density of 1.1 × 10^4 cells/well after suspending in a HBSS buffer (Invitrogen) containing 20 mM HEPES. Then, the fluorescent probe (Fluo8, AAT Bioquest) mixed with probenecid in HBSS buffer (Invitrogen) complemented with 20 mM Hepes (Millipore) (pH 7.4) was added into each well incubated for 60 min at 30 °C. Thereafter, the assay plates were positioned in a microplate reader (FlipR Tetra, Molecular Device) and we added test compounds, reference agonist/antagonist or HBSS buffer (basal control). Change in fluorescence intensity which varies proportionally to the free cytosolic Ca^2+ ion concentration was measured.

h5-HT1BR, sequence (P28222 whole entry): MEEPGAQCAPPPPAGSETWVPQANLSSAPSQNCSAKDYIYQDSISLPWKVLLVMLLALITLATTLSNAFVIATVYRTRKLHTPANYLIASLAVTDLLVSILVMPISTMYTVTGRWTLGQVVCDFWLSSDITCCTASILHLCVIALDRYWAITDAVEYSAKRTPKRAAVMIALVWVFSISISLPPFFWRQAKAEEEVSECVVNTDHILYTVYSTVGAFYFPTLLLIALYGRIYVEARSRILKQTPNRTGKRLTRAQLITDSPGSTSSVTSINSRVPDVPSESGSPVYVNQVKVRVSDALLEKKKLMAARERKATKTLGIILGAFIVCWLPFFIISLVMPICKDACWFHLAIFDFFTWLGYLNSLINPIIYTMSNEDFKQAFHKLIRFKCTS
T2 sequence (O14842 whole entry): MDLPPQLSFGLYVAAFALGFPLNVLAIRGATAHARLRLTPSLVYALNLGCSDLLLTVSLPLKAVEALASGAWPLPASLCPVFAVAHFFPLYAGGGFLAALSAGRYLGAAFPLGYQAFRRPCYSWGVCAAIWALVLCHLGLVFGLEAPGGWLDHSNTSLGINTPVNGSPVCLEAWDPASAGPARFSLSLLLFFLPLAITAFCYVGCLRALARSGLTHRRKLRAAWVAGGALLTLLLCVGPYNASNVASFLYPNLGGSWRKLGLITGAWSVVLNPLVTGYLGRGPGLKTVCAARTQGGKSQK
T1 sequence (P21554 whole entry): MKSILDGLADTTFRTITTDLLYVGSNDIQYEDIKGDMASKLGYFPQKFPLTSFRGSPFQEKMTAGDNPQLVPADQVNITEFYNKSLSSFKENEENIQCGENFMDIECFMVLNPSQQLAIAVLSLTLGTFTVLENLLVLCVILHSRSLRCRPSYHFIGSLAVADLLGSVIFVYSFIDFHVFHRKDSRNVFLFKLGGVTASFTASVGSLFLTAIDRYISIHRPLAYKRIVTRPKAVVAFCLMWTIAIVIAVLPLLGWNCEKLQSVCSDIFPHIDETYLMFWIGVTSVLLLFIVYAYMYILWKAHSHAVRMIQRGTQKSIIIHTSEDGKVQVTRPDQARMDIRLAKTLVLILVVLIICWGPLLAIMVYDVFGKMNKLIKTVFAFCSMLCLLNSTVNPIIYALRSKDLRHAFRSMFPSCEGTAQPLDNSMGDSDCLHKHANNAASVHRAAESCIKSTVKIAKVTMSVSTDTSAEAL

The IC50 is the midpoint of a concentration-inhibition curve. Regarding `CN(C)CCCc1cc(C(=O)Nc2ccc(-c3ccncc3)cc2)ccc1O` [GR55562, reference compound], half-maximal inhibition against h5-HT1BR (IC50) was put at 23 nM.
Consider `Cc1c(C(=O)NN2CCOCC2)nn(-c2ccc(Cl)cc2Cl)c1-c1ccc(I)cc1` [AM 281, reference compound], for which the IC50 in assay [1] worked out at 77 nM.
In general, EC50 refers to the concentration giving half of the maximal effect. Consider `CCCCC/C=C\C/C=C\CCCCCCCC(=O)O` [linoleic acid, reference compound], for which the half-maximal effective concentration (EC50) in assay [2] came to 10000 nM.
For the compound `COC1(C2=NCCN2)COc2ccccc2O1` (stereo not shown) [RX-821002, reference compound], the IC50 in assay [3] was determined as 17 nM.
